Measured values reported in patent US20130289083A1, “IDO Inhibitors” (priority 2007, published 2013).
Like-named read-outs stand apart in the source and are kept apart here.

Columns and labels:
[1] = target: T1, murine IDO (Mus musculus, UniProt P28776); assay: Cell based IDO/kynurenine assay in 293-T-Rex cells expressing murine IDO; conditions: cells expressing murine IDO, read-out: mIDO EC50
T1 construct: expressed in transfected cells; host or cells: 293-T-REx cells (Invitrogen), doxycycline-inducible CMV-tet promoter
Experimental: Transfected cells were selected in DBZ medium (DMEM, 10% FBS, 1× Penicillin+Streptomycin, 2 mM L-glutamine, 5 μg/mL blasticidin and 25 μg/ml Zeocin) at 37° C. with a 5% CO2 in air atmosphere. Individual clones were isolated by limiting dilution cloning from these populations.
The cells incubated in Neutral medium serve as negative control of the assay. The cells incubated in Induction medium and without inhibitor serve as the positive control of the assay. The incubation is carried out for 16 h at 37° C. in a cell culture incubator. 200 μL of medium are transferred to U-bottom polypropylene 96-well plates containing 25 μL of 30% TCA, incubated 30 minutes at 60° C. and centrifuged at 3400 g for 5 minutes. 150 μL of the clear supernatant is transferred to a polystyrene 96-well plate containing 50 μL of 4% (w/v) of p-dimethylaminobenzaldehyde in acetic acid, incubated for 10 min. Kynurenine concentration is determined by measuring the absorbance at 480 nm.

[2] = target: purified human IDO protein (Homo sapiens, UniProt P14902); assay: Enzymatic IDO assay (kynurenine production, absorbance 480 nm); conditions: enzymatic activity
[3] = target: human IDO (Homo sapiens, UniProt P14902); assay: Cell based IDO/kynurenine assay in IDO-293-T-Rex cells; conditions: kynurenine production, read-out: hIDO EC50
In short: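 293-T-REx cells stably carrying doxycycline-inducible human or murine IDO were incubated with inhibitors in induction medium for 16 h at 37° C. Medium was TCA-treated at 60° C and reacted with p-dimethylaminobenzaldehyde. Kynurenine was quantified by absorbance at 480 nm.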

[4] = hIDO IC50, Table 15, recombinant human IDO
[5] = Table 15, 293T cells expressing human IDO
[6] = hIDO IC50, Table 16, recombinant human IDO
[7] = Table 16, 293T cells expressing human IDO
[8] = hIDO IC50, recombinant human IDO, values reported in ranges
[9] = 293T cell line stably expressing human IDO, values reported in ranges

Chain of purified human IDO protein (P14902 whole entry P110S/E119G): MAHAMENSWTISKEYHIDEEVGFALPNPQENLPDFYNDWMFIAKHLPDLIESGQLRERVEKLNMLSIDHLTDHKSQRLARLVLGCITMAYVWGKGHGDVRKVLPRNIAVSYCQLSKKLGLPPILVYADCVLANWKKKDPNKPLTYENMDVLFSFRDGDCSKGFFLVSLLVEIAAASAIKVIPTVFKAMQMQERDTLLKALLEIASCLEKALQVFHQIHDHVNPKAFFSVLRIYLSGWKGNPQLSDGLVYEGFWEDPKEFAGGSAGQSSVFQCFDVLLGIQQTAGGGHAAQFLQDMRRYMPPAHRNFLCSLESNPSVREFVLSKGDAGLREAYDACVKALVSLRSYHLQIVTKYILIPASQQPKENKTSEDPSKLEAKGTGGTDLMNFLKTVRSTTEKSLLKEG
Chain of human IDO (P14902 whole entry): as the sequence (P14902 whole entry P110S/E119G) above, with S110P, G119E counted along it
T1 sequence (P28776 whole entry): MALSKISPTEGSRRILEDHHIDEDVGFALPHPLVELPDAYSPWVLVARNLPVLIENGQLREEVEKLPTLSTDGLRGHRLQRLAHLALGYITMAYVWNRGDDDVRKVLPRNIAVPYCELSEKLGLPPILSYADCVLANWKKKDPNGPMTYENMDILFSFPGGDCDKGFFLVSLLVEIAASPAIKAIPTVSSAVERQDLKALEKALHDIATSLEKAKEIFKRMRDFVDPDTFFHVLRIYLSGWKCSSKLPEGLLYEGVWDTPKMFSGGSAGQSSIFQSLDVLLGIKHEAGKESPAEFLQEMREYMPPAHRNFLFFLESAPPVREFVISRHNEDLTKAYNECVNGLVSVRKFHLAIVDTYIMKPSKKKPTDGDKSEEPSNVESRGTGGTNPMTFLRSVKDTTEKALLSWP

Row | Compound | EC50 ([1]; Table 15) | IC50 [2, 4] | EC50 [3, 5] | EC50 ([1]; Table 16) | IC50 [2, 6] | EC50 [3, 7] | IC50 [2, 8] | EC50 [3, 9]
1 | NOCC1CCc2ccccc2O1 (centres unmarked) [compound 1768, O-(chroman-2-ylmethyl)hydroxylamine] | < 10 µM | < 10 µM | < 10 µM |  |  |  |  | 
2 | NOCc1cc(Cl)ccc1-c1cccc(Cl)c1 [compound 1918, O-((3′,4-dichlorobiphenyl-2-yl)methyl)hydroxylamine] | 10 to 100 µM | < 10 µM | < 10 µM |  |  |  |  | 
3 | Cc1ccc(-c2cccc(CON)c2)cc1 [compound 1881, O-((4′-methylbiphenyl-3-yl)methyl)hydroxylamine] | 10 to 100 µM | 10 to 100 µM | < 10 µM |  |  |  |  | 
4 | NOc1cccc2ccccc12 [compound 1903, O-(naphthalen-1-yl)hydroxylamine] | 10 to 100 µM | < 10 µM | 10 to 100 µM |  |  |  |  | 
5 | NOCc1c(F)cccc1Cl [compound 1674, O-(2-chloro-6-fluorobenzyl)hydroxylamine] | 10 to 100 µM | 10 to 100 µM | < 10 µM |  |  |  |  | 
6 | NOC1CCCCO1 (centres unmarked) [compound 1669, O-(tetrahydro-2H-pyran-2-yl)hydroxylamine] |  |  |  | < 10 µM | 10 to 100 µM | < 10 µM |  | 
7 | NOCc1cc(Cl)ccc1-c1ccc(C(F)(F)F)cc1 [compound 1917, O-((4-chloro-4′-(trifluoromethyl)biphenyl-2-yl)methyl)hydroxylamine] | 10 to 100 µM | < 10 µM | < 10 µM |  |  |  |  | 
8 | NOCc1cc(F)cc(Cl)c1 [compound 1660, O-(3-chloro-5-fluorobenzyl)hydroxylamine] | < 10 µM | < 10 µM | < 10 µM |  |  |  |  | 
9 | NOCc1cccc2ccccc12 [compound 1767, O-(naphthalen-1-ylmethyl)hydroxylamine] |  |  |  | 10 to 100 µM | < 10 µM | < 10 µM |  | 
10 | Cc1cccc(CON)c1 [compound 1692, O-(3-methylbenzyl)hydroxylamine] |  |  |  | 10 to 100 µM | 10 to 100 µM | < 10 µM |  | 
11 | COc1ccc(OC)c(CON)c1 [compound 1771, O-(2,5-dimethoxybenzyl)hydroxylamine] | < 10 µM | < 10 µM | < 10 µM |  |  |  |  | 
12 | NOCc1ccccc1Nc1ccccc1 [compound 1871, 2-(aminooxymethyl)-N-phenylaniline] | 10 to 100 µM | < 10 µM | < 10 µM |  |  |  |  | 
13 | CNC(=O)C(ON)c1ccccc1 (centres unmarked) [compound 1897, 2-(aminooxy)-N-methyl-2-phenylacetamide] | < 10 µM | < 10 µM | < 10 µM |  |  |  |  | 
14 | COc1ccccc1CON [compound 1678, O-(2-methoxybenzyl)hydroxylamine] |  |  |  | 10 to 100 µM | 10 to 100 µM | < 10 µM |  | 
15 | COc1ccc(-c2cccc(CON)c2)cc1 [compound 1882, O-((4′-methoxybiphenyl-3-yl)methyl)hydroxylamine] | 10 to 100 µM | < 10 µM | < 10 µM |  |  |  |  | 
16 | NOCc1cccc(-c2ccccc2)c1 [compound 1825, O-(biphenyl-3-ylmethyl)hydroxylamine] | 10 to 100 µM | < 10 µM | < 10 µM |  |  |  |  | 
17 | NOCc1ccc(CON)cc1 [compound 1492, O,O′-(1,4-phenylenebis(methylene))bis(hydroxylamine)] |  |  |  | 10 to 100 µM | 10 to 100 µM | < 10 µM |  | 
18 | O=C1NC(=S)S/C1=C\c1ccc2c(c1)OCO2 [compound 148, (Z)-5-(benzo[d][1,3]dioxol-5-ylmethylene)-2-thioxothiazolidin-4-one] |  |  |  |  |  |  | 100 to 1000 µM | 100 to 1000 µM
19 | NC(=O)C(=O)NNc1ccccc1 [compound 312, 2-oxo-2-(2-phenylhydrazinyl)acetamide] |  |  |  |  |  |  | < 20 µM | < 20 µM
20 | Cc1cc2ccccc2cc1CCSC(=S)NCCc1c[nH]c2ccccc12 [compound 47, 2-(3-methylnaphthalen-2-yl)ethyl 2-(1H-indol-3-yl)ethylcarbamodithioate] |  |  |  |  |  |  | 100 to 1000 µM | 20 to 100 µM
21 | CC(CC(=O)O)c1cccc([N+](=O)[O-])c1 (centres unmarked) [compound 282, 3-(3-nitrophenyl)butanoic acid] |  |  |  |  |  |  | 100 to 1000 µM | 1000 to 10000 µM
